Data taken from PubChem BioAssay (NCI).
Where “and” joins values, the source holds several entries; their conditions need not be identical. Equal values may be shown once.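 Compound exposure: 48 hours, 5 concentrations, 96-well plates. The concentration for 50% growth inhibition is given as GI50. TGI: concentration producing complete growth inhibition.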

Columns and labels:
Experiment in all cases: NCI tumour cell line growth inhibition, 48 h
MALME-3M melanoma = tested on: MALME-3M melanoma
UACC-62 melanoma = tested on: UACC-62 melanoma
786-0 renal = tested on: 786-0 renal
SF-295 CNS = tested on: SF-295 CNS
NCI-H460 lung = tested on: NCI-H460 lung
SF-539 CNS = tested on: SF-539 CNS
NCI-H23 lung = tested on: NCI-H23 lung
BT-549 breast = tested on: BT-549 breast
MDA-MB-231 breast = tested on: MDA-MB-231 breast
MCF7 breast = tested on: MCF7 breast

| SMILES | GI50 (MALME-3M melanoma) [µM] | TGI (MALME-3M melanoma) | GI50 (UACC-62 melanoma) [µM] | TGI (UACC-62 melanoma) | GI50 (786-0 renal) [µM] | TGI (786-0 renal) | GI50 (SF-295 CNS) [µM] | TGI (SF-295 CNS) | GI50 (NCI-H460 lung) [µM] | TGI (NCI-H460 lung) | GI50 (SF-539 CNS) [µM] | TGI (SF-539 CNS) | GI50 (NCI-H23 lung) [µM] | TGI (NCI-H23 lung) | GI50 (BT-549 breast) [µM] | TGI (BT-549 breast) [µM] | GI50 (MDA-MB-231 breast) [µM] | TGI (MDA-MB-231 breast) [µM] | GI50 (MCF7 breast) [µM] | TGI (MCF7 breast) [µM] |
| --- | --- | --- | --- | --- | --- | --- | --- | --- | --- | --- | --- | --- | --- | --- | --- | --- | --- | --- | --- | --- |
| CCC[CH2][Ge]([CH2]CCC)([CH2]CCC)[O]C(=O)C(OC)c1ccccc1 (centres undefined) | 26.7 | > 100 µM | 30.7 | > 100 µM | 47.2 | > 100 µM | 18.3 | > 100 µM | 22.1 | > 100 µM | 32.1 | > 100 µM | 6.86 | 51.8 µM | – | – | – | – | – | – |
| Cc1ccc(C2(O)CC(c3ccc([N+](=O)[O-])o3)=NN2C(=O)COc2ccccc2Cl)cc1 (centres undefined) | – | 40.3 µM | – | 24.5 µM | – | > 100 µM | – | > 100 µM | – | > 31.6 µM | – | 48.4 µM | – | 33.6 µM | – | – | – | – | – | – |
| Nc1ncnc2c(C3OC(CO)C(O)C3O)[nH]nc12 (centres undefined) | 0.519 | 5.33 µM and 2.75 µM | – | 10.7 µM and 10.2 µM | 0.0544 | 5.65 µM | 0.231 | 1.1 µM and 10.1 µM | 0.0434 | 2.12 µM and 1.44 µM | 0.271 | 2.32 µM and 5.87 µM | 0.659 | 10.5 µM and 16.4 µM | 0.113 | 3.38 | 0.0218 | 0.0705 | – | – |
| O=C1c2cc3c(cc2[C@@H]2[C@H]1c1ccc([N+](=O)[O-])cc1C(=O)N2CCCCl)OCO3 | – | – | < 0.01 | < 0.0171 µM | < 0.01 | < 0.0135 µM | < 0.01 | 11.4 µM | < 0.01 | 13.6 µM | < 0.01 | – | < 0.01 | 0.0398 µM | – | – | < 0.0416 | 2.38 | < 0.01 | – |
| NCCCC1NC(=O)/C(=C(O)/C=C/C2CCC[C@@H]2CC2SCCS2)C1=O (some centres undefined) | – | > 100 µM | – | > 100 µM | – | > 100 µM | – | > 100 µM | – | > 100 µM | – | > 100 µM | – | > 100 µM | – | – | – | – | – | – |
| CCOC(=O)C(Cc1ccccc1)NC(=O)OC(C)(C)C (centres undefined) | – | > 100 µM | – | > 100 µM | – | > 100 µM | – | > 100 µM | – | > 100 µM | – | > 100 µM | – | > 100 µM | – | – | – | – | – | – |
| CCc1ccc(Nc2cc(=O)[nH]c(=S)n2C)cc1 | – | > 100 µM | – | > 100 µM | – | > 100 µM | – | > 100 µM | – | > 100 µM | – | > 100 µM | – | > 100 µM | – | – | – | – | – | – |
| Nc1ncnc2c(C3OC(CO)C(O)C3O)scc12 (centres undefined) | 4.35 | 24.4 µM | – | – | 0.168 | 4.5 µM and 3.08 µM | 0.591 | 2.45 µM and 3.66 µM | – | 0.554 µM and 1.12 µM | – | – | 0.0585 | 1.33 µM and 1.39 µM | – | – | – | – | – | – |
| C/C1=C\C/C=C(\C)[C@H]2CC(CC/C(C)=C/CC1)[C@@](C)(CO)O2 | – | – | 69.2 | > 100 µM | > 100 | > 100 µM | 59.3 | > 100 µM | 74.4 | > 100 µM | > 100 | > 100 µM | > 100 | > 100 µM | > 100 | > 100 | 54.9 | > 100 | 26.7 | 77.7 |
| CO/N=C(/COc1c(-c2ccccc2)oc2ccccc2c1=O)c1ccc(OC)cc1 | > 100 | > 100 µM | 53.5 | > 100 µM | > 100 | > 100 µM | > 100 | > 100 µM | – | – | > 100 | > 100 µM | > 100 | > 100 µM | > 100 | > 100 | 31.3 | > 100 | – | – |
| CN(C)CC/C(=N\Nc1ccc(Cl)c(Cl)c1)c1ccccc1 | – | 13.3 µM | – | 3.88 µM | – | 3.37 µM | – | 3.99 µM | – | 3.65 µM | – | 3.47 µM | – | 3.67 µM | – | – | – | – | – | – |
| O=C(OCC1OC(OC(=O)c2cc(O)c(O)c(OC(=O)c3cc(O)c(O)c(O)c3)c2)C(OC(=O)c2cc(O)c(O)c(OC(=O)c3cc(O)c(O)c(O)c3)c2)C(OC(=O)c2cc(O)c(O)c(OC(=O)c3cc(O)c(O)c(O)c3)c2)C1OC(=O)c1cc(O)c(O)c(OC(=O)c2cc(O)c(O)c(O)c2)c1)c1cc(O)c(O)c(OC(=O)c2cc(O)c(O)c(O)c2)c1 (centres undefined) | – | – | 14.3 | > 50 µM | 46.9 | > 50 µM | 8.65 | 22.9 µM | 4.14 | 36 µM | 11.7 | 35.1 µM | 18.9 | > 50 µM | 12.1 | 35.9 | 9.85 | 36.7 | 13.2 | 34.7 |
| CCC[CH2][Sn]([CH2]CCC)([O]C(=O)c1cc(OC)c(OC)cc1OC)[O]C(=O)c1cc(OC)c(OC)cc1OC | 0.793 | 2.08 µM | 1.12 | 2.37 µM | 1.41 | 2.78 µM | 2.28 | 5.88 µM | 3.08 | 12.1 µM | 1.02 | 2.23 µM | 0.674 | 1.96 µM | – | – | – | – | – | – |
| Cc1ccccc1-c1c(N)nc(N)nc1C(=O)Nc1nccs1 | – | > 100 µM | – | > 100 µM | – | > 100 µM | – | > 100 µM | – | > 100 µM | – | > 100 µM | – | > 100 µM | – | – | – | – | – | – |
| CCC1(C(=O)OC)CCc2c(OC)ccc(OC)c2C1=O (centres undefined) | – | > 100 µM | – | > 100 µM | – | > 100 µM | – | > 100 µM | – | > 100 µM | – | > 100 µM | – | > 100 µM | – | – | – | – | – | – |
| O=C1[C@@H]2C3SC(c4ccccc43)[C@@H]2C(=O)N1c1ccccc1 | – | > 100 µM | – | > 100 µM | – | > 100 µM | – | > 100 µM | – | > 100 µM | – | > 100 µM | – | > 100 µM | – | – | – | – | – | – |
| O=C(CC(=O)Nc1ccccc1O)Nc1ccccc1O | – | 37.7 µM | – | 10.9 µM | – | 36 µM | – | > 100 µM | – | 66.3 µM | – | 35.1 µM | – | 64.3 µM | – | – | – | – | – | – |
| COc1cc(C(=O)C/C(CCC(=O)Nc2ccc(Cl)cc2Cl)=N/NC(=O)C(N)=O)ccc1O | – | > 100 µM | – | > 100 µM | – | > 100 µM | – | > 100 µM | – | > 100 µM | – | > 100 µM | – | > 100 µM | – | – | – | – | – | – |
| CC(C)(C)OC(=O)NC1CCC[C@H]1O (some centres undefined) | – | > 100 µM | – | > 100 µM | – | > 100 µM | – | > 100 µM | – | > 100 µM | – | > 100 µM | – | > 100 µM | – | – | – | – | – | – |
| Cc1ccccc1NC(=O)C1C(=O)N(c2ccccc2C)C(=O)/C1=N\N (centres undefined) | – | > 100 µM | – | > 100 µM | – | > 100 µM | – | > 100 µM | – | > 100 µM | – | > 100 µM | – | > 100 µM | – | – | – | – | – | – |
